Results reported in ChEMBL document CHEMBL5665443, “Enzyme Inhibitor Single Concentration assay results for EUbOPEN Chemogenomics Library” (2024).
Where a SMILES comes first, the peptide text is derived from it. Bridges are numbered along the chain shown (N, C = ends). [ ]: non-standard residue; d: D form. Orn = NCCC[C@H](N)C(=O)O; Mpa = O=C(O)CCS

How the values were obtained:
[1] = molecular target: Endonuclease 8-like 1 (Homo sapiens) (UniProt Q96FI4); details: Hit No;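 further: fluorescence at 594 nm from quenched duplex DNA oligonucleotides released by NEIL1 cleavage and strand separation, reported as reduction of this enzyme activity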
Description: Inhibition of NEIL1 by quantifying inhibition of NEIL1-mediated cleavage and dissociation of quenched duplex DNA oligonucleotides, measured as fluorescence at 594 nm.

[2] = molecular target: N-glycosylase/DNA lyase (Homo sapiens) (UniProt O15527); details: Compound Concentration 10.0 uM, Hit No;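 further: OGG1 cleavage of a quenched duplex DNA oligonucleotide, coupled to APE1 for strand incision, read as fluorescence at 594 nm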
Description: Inhibition of OGG1 by quantifying inhibition of OGG1-mediated cleavage and dissociation of quenched duplex DNA oligonucleotides, measured as fluorescence at 594 nm. To generate a functional strand incision and increase turn-over this assay is coupled to APE1.

[3] = molecular target: Uracil-DNA glycosylase (Homo sapiens) (UniProt P13051); details: Hit No;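 further: UNG excision on a quenched double-stranded DNA oligo probe, with APE1 added for strand incision and turnover, read as fluorescence at 594 nm as strands separate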
Description: Inhibition of UNG by quantifying inhibition of UNG-mediated cleavage and dissociation of quenched duplex DNA oligonucleotides, measured as fluorescence at 594 nm. To generate a functional strand incision and increase turn-over this assay is coupled to APE1.

[4] = molecular target: Methyl-CpG-binding domain protein 4 (Homo sapiens) (UniProt O95243); details: Hit No;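 further: MBD4 activity read as fluorescence at 594 nm from cleavage and release of a quenched duplex DNA oligonucleotide, with APE1 coupled to incise the strand and raise turnover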
Description: Inhibition of MBD4 by quantifying inhibition of MBD4-mediated cleavage and dissociation of quenched duplex DNA oligonucleotides, measured as fluorescence at 594 nm. To generate a functional strand incision and increase turn-over this assay is coupled to APE1.

[5] = molecular target: T1, Endonuclease 8-like 2 (Homo sapiens) (UniProt Q969S2); details: Compound Concentration 10.0 uM, Hit No;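 further: fluorescence at 594 nm reports NEIL2 cutting and release of a quenched double-stranded DNA oligo substrate, reduced signal read as inhibition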
T1 sequence (whole entry): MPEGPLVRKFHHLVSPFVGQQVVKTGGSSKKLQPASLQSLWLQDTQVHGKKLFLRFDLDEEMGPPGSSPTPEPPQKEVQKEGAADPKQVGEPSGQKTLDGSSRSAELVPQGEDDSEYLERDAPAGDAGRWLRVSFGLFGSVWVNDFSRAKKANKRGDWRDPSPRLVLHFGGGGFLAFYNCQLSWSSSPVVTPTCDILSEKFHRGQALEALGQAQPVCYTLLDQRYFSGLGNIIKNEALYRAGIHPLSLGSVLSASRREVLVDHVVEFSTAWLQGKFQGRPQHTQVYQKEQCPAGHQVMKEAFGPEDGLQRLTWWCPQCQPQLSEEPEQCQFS
Description: Inhibition of NEIL2 by quantifying inhibition of NEIL2-mediated cleavage and dissociation of quenched duplex DNA oligonucleotides, measured as fluorescence at 594 nm.

[6] = molecular target: G/T mismatch-specific thymine DNA glycosylase (Homo sapiens) (UniProt Q13569); details: Hit No;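 further: human TDG cleavage of quenched duplex DNA oligonucleotides coupled to APE1, strand release read as fluorescence at 594 nm, inhibition of TDG activity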
Description: Inhibition of TDG by quantifying inhibition of TDG-mediated cleavage and dissociation of quenched duplex DNA oligonucleotides, measured as fluorescence at 594 nm. To generate a functional strand incision and increase turn-over this assay is coupled to APE1.

[7] = molecular target: T2, Single-strand selective monofunctional uracil DNA glycosylase (Homo sapiens) (UniProt Q53HV7); details: Compound Concentration 10.0 uM, Hit No;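 further: enzymatic SMUG1 assay coupled with APE1, reading fluorescence at 594 nm released when a quenched double-stranded DNA oligonucleotide substrate is cleaved and separated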
T2 sequence (whole entry): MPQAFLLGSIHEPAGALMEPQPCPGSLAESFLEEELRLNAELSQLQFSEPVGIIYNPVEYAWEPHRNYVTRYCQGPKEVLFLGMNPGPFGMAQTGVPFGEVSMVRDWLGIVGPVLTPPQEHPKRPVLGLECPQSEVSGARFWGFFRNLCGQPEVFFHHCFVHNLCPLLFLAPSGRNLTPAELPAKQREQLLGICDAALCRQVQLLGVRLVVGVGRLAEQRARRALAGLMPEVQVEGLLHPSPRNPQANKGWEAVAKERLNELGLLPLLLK
Description: Inhibition of SMUG1 by quantifying inhibition of SMUG1-mediated cleavage and dissociation of quenched duplex DNA oligonucleotides, measured as fluorescence at 594 nm. To generate a functional strand incision and increase turn-over this assay is coupled to APE1.

Chain of Methyl-CpG-binding domain protein 4 (Homo sapiens) (O95243 whole entry, the tested form may be a part): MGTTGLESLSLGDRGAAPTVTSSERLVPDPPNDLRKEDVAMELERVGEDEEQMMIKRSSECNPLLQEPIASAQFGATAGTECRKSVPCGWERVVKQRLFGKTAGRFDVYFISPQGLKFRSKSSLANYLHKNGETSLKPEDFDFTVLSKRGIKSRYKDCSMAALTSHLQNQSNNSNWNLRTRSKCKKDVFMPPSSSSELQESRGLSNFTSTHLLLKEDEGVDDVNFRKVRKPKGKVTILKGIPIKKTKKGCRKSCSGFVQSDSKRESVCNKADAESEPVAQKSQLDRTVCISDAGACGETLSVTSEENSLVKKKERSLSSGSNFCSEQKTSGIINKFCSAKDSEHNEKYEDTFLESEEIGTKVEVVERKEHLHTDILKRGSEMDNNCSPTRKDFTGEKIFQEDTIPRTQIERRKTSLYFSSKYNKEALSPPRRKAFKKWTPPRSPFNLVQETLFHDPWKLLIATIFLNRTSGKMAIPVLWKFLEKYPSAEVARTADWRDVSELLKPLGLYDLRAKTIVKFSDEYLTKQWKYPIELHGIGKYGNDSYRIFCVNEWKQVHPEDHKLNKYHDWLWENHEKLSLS
Chain of Uracil-DNA glycosylase (Homo sapiens) (P13051 whole entry, the tested form may be a part): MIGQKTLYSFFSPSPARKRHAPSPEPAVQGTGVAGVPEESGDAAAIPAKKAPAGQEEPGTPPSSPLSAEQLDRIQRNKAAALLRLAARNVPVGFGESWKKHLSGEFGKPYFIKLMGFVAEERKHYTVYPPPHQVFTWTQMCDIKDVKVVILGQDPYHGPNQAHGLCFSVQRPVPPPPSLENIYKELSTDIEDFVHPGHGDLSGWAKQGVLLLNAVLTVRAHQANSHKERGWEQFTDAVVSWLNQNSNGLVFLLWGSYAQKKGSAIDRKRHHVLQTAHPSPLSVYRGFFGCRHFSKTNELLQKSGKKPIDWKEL
Chain of Endonuclease 8-like 1 (Homo sapiens) (Q96FI4 whole entry): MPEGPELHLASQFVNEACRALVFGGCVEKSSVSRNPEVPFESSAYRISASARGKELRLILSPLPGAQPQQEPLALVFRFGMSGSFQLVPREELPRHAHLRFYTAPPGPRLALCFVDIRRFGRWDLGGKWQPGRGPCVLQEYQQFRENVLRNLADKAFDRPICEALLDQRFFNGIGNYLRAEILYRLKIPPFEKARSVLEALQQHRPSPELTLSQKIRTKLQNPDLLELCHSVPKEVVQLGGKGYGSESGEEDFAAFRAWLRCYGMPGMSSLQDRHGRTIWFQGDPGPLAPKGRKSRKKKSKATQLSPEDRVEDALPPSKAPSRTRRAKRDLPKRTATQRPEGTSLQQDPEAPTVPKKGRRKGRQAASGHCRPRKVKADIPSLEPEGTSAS
Chain of G/T mismatch-specific thymine DNA glycosylase (Homo sapiens) (Q13569 whole entry): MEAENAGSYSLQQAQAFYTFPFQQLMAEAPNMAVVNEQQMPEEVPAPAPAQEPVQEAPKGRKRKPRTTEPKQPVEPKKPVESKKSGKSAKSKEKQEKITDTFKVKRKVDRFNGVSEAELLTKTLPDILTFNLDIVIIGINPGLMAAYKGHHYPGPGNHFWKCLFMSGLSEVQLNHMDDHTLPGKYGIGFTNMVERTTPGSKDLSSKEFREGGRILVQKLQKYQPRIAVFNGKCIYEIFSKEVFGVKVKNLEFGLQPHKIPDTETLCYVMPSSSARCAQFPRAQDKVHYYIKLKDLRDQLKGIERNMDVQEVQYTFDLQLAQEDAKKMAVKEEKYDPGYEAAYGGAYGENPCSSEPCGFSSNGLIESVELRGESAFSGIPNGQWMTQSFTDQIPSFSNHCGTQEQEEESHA
Chain of N-glycosylase/DNA lyase (Homo sapiens) (O15527 whole entry): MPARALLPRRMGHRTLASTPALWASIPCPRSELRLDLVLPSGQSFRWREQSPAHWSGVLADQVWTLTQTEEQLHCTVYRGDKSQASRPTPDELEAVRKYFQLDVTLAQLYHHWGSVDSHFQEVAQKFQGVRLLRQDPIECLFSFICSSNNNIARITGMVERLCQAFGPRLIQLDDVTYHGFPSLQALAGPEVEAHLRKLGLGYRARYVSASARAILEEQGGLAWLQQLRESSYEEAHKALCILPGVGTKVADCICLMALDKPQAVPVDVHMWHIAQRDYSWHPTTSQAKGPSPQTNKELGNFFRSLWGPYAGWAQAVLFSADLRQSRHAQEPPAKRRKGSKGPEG

SMILES | inhibition ([1]; Compound Concentration 10.0 uM) [%] | inhibition [2] [%] | inhibition ([3]; Compound Concentration 10.0 uM) [%] | inhibition ([4]; Compound Concentration 10.0 uM) [%] | inhibition [5] [%] | inhibition ([6]; Compound Concentration 10.0 uM) [%] | inhibition [7] [%] | inhibition ([1]; Compound Concentration 1.0 uM) [%] | inhibition ([3]; Compound Concentration 1.0 uM) [%] | inhibition ([4]; Compound Concentration 1.0 uM) [%] | inhibition ([6]; Compound Concentration 1.0 uM) [%]
COc1cccc(OC)c1-c1cc(C(=O)NC2(C(=O)O)C3CC4CC(C3)CC2C4)nn1-c1ccc(C(=O)N(C)CCCN(C)C)cc1C(C)C (stereo not drawn) | 2.02 | 3.59 | -7.25 | 10.5 | 7.25 | 18.3 |  |  |  |  | 
CCOc1ccc(C[C@H]2NC(=O)CCSSC[C@@H](C(=O)N3CCC[C@H]3C(=O)N[C@@H](CCCN)C(=O)NCC(N)=O)NC(=O)[C@H](CC(N)=O)NC(=O)[C@H]([C@@H](C)O)NC(=O)[C@H]([C@@H](C)CC)NC2=O)cc1 ([Mpa][dY](Et)ITNCP[Orn]G-NH2; disulfide 1-6) | 4.99 |  | -8.02 |  | 9 | -5.89 | -2.21 |  |  |  | 
Cc1nc2sccn2c(=O)c1CCN1CCC(=C(c2ccc(F)cc2)c2ccc(F)cc2)CC1 | -4.65 | 4.32 |  |  | 7.75 | 20.8 | -6.91 |  |  |  | 
Cc1ccc(-c2ccc3c(ccc4sc5c(c43)NCC(C)NC5=O)n2)cn1 (stereo not drawn) | -2.5 | -7.16 |  |  |  | 25.8 | 6.89 |  |  |  | 
N#Cc1ccc2[nH]cc(CCCCN3CCN(c4ccc5oc(C(N)=O)cc5c4)CC3)c2c1 | 14.2 | -2.53 | -7.29 |  |  | -5.72 | 10.3 |  |  |  | 
Cc1noc([C@H]2C[C@@H](c3ccc(C(F)(F)F)cc3)CN(C(=O)N3CCS(=O)(=O)C3)C2)n1 |  | 1.56 | -0.51 | 42.2 | -5.59 | 53.6 | 5.39 |  |  |  | 
Cc1nc(-c2ccc(-c3ccc(C(=O)N4CCc5cc6c(cc54)C4(CCN(C)CC4)CO6)cc3)c(C)c2)no1 | -7.62 |  |  | 2.3 | -3.48 | -5.26 |  |  |  |  | 
CCn1c(CNC(=O)c2nc(Cl)cnc2N)[n+](CC)c2ccc(C(=O)N(C)CCN(C)C)cc21 | -5.14 | 14.2 | 2.92 | 53.4 |  | 96.8 | 12.7 |  |  |  | 
Cc1ccc(NC(=O)Nc2cc(C(F)(F)F)ccc2F)cc1Nc1ccc2c(c1)NC(=O)/C2=C\c1ccc[nH]1 |  |  |  |  |  |  |  | -7.79 | -3.3 | -5.4 | 24.1
Clc1ccc(CCCOCCCN2CCCCC2)cc1 | -3.47 |  | -8.48 |  | -5.97 | 8.64 | -0.857 |  |  |  | 
c1cc(OCCCN2CCCCC2)ccc1CN1CCCCC1 | -2.58 | -9.64 |  |  | -0.733 | 13.9 |  |  |  |  | 
CN1C2CCC1CC(OC(c1ccc(F)cc1)c1ccc(F)cc1)C2 (stereo not drawn) | 1.28 |  | -4.51 |  | -4.23 |  |  |  |  |  | 
N=C(N)SCCc1c[nH]cn1 | -8.06 | -6.9 |  | 11.4 |  | -1.52 | -7.4 |  |  |  | 
COc1cc(N2CCC(O)CC2)ccc1Nc1cc(Nc2ccccc2S(=O)(=O)C(C)C)c2cc[nH]c2n1 |  | 21.1 | 3.96 | 13.6 |  | 52.6 | 4.55 |  |  |  | 
Cn1ncc2c(-c3c(-c4ccc(F)cn4)nn4c3COC(C)(C)C4)ccnc21 |  | -1.93 | 1.59 | 50.1 | -5.34 | 99.5 | 3.56 |  |  |  | 
Cn1c(-c2csc(C3CCN(CC4=NC5N=CC=CC5N4)CC3)n2)nc2ccccc21 (stereo not drawn) | -1.5 | -1.15 |  | -3.01 | -5.34 | 20.6 |  |  |  |  | 
Cc1ccc2c(c1)c1c(n2CCc2ccc(C)nc2)CCN(C)C1 | -8.95 |  |  |  | 3.01 | -5.76 | -3.57 |  |  |  | 
Cc1cc2c(-c3ccco3)cnc(N[C@H]3CCN(C)C[C@@H]3C(=O)NC3CCCCC3)c2[nH]c1=O | 0.316 |  | -1.62 | 29.8 | -2.27 | 22.3 |  |  |  |  | 
CCNC(=O)c1cc2c(N3CCOCC3C)ccnc2[nH]1 (stereo not drawn) |  | -6.36 | -3.94 | 52.5 | -7.12 | 58.1 | 15.1 |  |  |  | 
